Measured values taken from ChEMBL document CHEMBL1629648, “New composite genetic element of the Tn916 family with dual macrolide resistance genes in a Streptococcus pneumoniae isolate belonging to clonal complex 271” (2009).
≈ marks a conversion by molar mass, not a printed value.

These molecules were tested on Streptococcus pneumoniae (assay: Antimicrobial activity against multidrug resistant Streptococcus pneumoniae serotype 19F S43 carring erm(B),mef(E) and tet(M) gene).
Assay type: functional

First: CC1(C)S[C@@H]2[C@H](NC(=O)Cc3ccccc3)C(=O)N2[C@H]1C(=O)O [PENICILLIN G]
Second: CN(C)[C@@H]1C(O)=C(C(N)=O)C(=O)[C@@]2(O)C(O)=C3C(=O)c4c(O)cccc4[C@@](C)(O)[C@H]3C[C@@H]12 [TETRACYCLINE]
The MIC of the first is 4-fold lower: 4 µg/mL (≈ 12 µM) for the first, 16 µg/mL (≈ 36 µM) for the second.

`CC[C@H]1OC(=O)[C@H](C)[C@@H](O[C@H]2C[C@@](C)(OC)[C@@H](O)[C@H](C)O2)[C@H](C)[C@@H](O[C@@H]2O[C@H](C)C[C@H](N(C)C)[C@H]2O)[C@](C)(O)C[C@@H](C)C(=O)[C@H](C)[C@@H](O)[C@]1(C)O` [ERYTHROMYCIN] and `CCC[C@@H]1C[C@@H](C(=O)N[C@@H]([C@H]2O[C@H](SC)[C@H](O)[C@@H](O)[C@H]2O)[C@H](C)Cl)N(C)C1` [CLINDAMYCIN] cannot be ordered by MIC: > 256 µg/mL for the first, > 256 µg/mL for the second.
